Results: patent publication US11207424B2, “Methods and materials for increasing viral vector infectivity” (Mayo Foundation for Medical Education and Research, priority 2014, dated 2021)
Read-outs that look alike come from different tables or passages of the source.

Key:
[1] = system: HeLa cells; experiment: GFP-expressing single-stranded AAV9 or scAAV9 vector transduction of HeLa cells, flow cytometry; assay type: cell-based; details: AAV9 CMV-GFP or scAAV9 CMV-GFP, 20 nM at 8 hours p.i., 48 hours p.i.
Method: FIG. 20 contains flow cytometry data plotting the infectivity of GFP-expressing single-stranded AAV9 or self-complementary (sc) AAV9 vectors. HeLa cells were infected by AAV9 CMV-GFP or scAAV9 CMV-GFP vectors, followed by treatment with 20 nM meayamycin B at 8 hours p.i. Flow cytometry analysis was performed to observe GFP-positive cell populations at 48 hours p.i.
To understand the mechanism of U2 snRNP-mediated block of AAV vector transduction, the optimal timing of meayamycin B treatment in relationship to AAV infection was further assessed. Pretreatment with the drug was not needed in order for it to enhance AAV9 infection (FIG. 18). […] To further map the optimal timing of U2 snRNP inhibition for AAV vector transduction, AAV2 and AAV9 vector-infected HeLa cells were treated with 5 nM meayamycin B at various time points and duration, and luciferase activity was assessed at 3 days p.i. […] In contrast, the effects of meayamycin B on AAV vector transduction were impaired when drug was added either 24 or 48 hours p.i. (FIG. 19). Thus, optimal enhancement of AAV vector transduction involved initiation of U2 snRNP inhibition prior to 24 hours post AAV vector infection.

[2] = system: primary porcine hepatocytes; experiment: AAV2 or AAV9 CMV-Luc transduction of primary porcine hepatocytes, luciferase; assay type: cell-based; details: porcine hepatocytes, 0, 2 or 20 nM after 8 hours infection, 48 hours p.i.
Method: FIG. 24 contains graphs plotting the relative luciferase activity in porcine hepatocytes exposed to AAV2 or AAV9 CMV-Luc vectors. Cells were infected with AAV vectors for 8 hours, virus was then removed, and cells were treated with 0, 2, or 20 nM meayamycin B. Cells were harvested 48 hours p.i. for the luciferase assay.
(§1) The ability of meayamycin B to boost AAV transduction in various cell types, relevant to gene therapy applications, was also tested. First, primary pancreatic islets were isolated from 8 week-old C57B1/6 mice, which were then transduced with AAV8 CMV-GFP and treated with 2 nM meayamycin B 3 hours p.i. Cells were monitored by BioStation Live Imaging for three days. […] (FIG. 21). The effects of meayamycin B on primary human pancreatic islets were then tested. Cells were infected with AAV2 or AAV9 CMV-Luc vectors and treated with 0, 2, 5, or 20 nM meayamycin B at 7 hours p.i. When luciferase expression was monitored at 48 hours p.i., a dose-dependent increase in luciferase expression in AAV2 and AAV9 infected cells (up to 44- and 24-fold increases in AAV9 and AAV2 transduction) was observed (FIG. 22). The effects on neonatal rat cardiomyocytes were tested next. Primary cardiomyocytes were infected with AAV2 CMV-Luc, followed by 0, 2, or 10 nM meayamycin B treatments at 3 hours post infection for 3 days. […] (FIG. 23).

[3] = system: HeLa cells; assay type: cell-based; details: for increase in relative luciferase activity: 48 hours p.i.
[4] = system: neonatal rat cardiomyocytes; experiment: AAV2 CMV-Luc or scAAV9 CMV-GFP transduction of neonatal rat cardiomyocytes; assay type: cell-based
Method: FIG. 23 presents a graph plotting the relative luciferase activity and images of GFP-expressing cells in neonatal rat cardiomyocytes. Primary cardiomyocytes were infected with AAV2 CMV-Luc or scAAV9 CMV-GFP vectors and treated with meayamycin B, 3 hours p.i. Luciferase activity was measured 3 days p.i., while GFP expression was monitored at 5 days p.i.
as §1

[5] = system: cancer cell lines and clinically relevant cell types, including pancreatic islets and hepatocytes; experiment: Summary statement: AAV vector transduction of cancer cell lines and clinically relevant cell types; assay type: cell-based; details: summary over cell types
Source text: Thus, genetic and/or pharmacological inhibition of U2 snRNP can be used to increase AAV vector transduction, which allows for efficient AAV vector gene therapy with reduced vector doses.

[6] = system: primary human pancreatic islets; experiment: AAV2 or AAV9 CMV-Luc transduction of primary human pancreatic islets, luciferase; assay type: cell-based; details: human islets, 0, 2, 5 or 20 nM at 7 hours p.i., 48 hours p.i.
Method: FIG. 22 contains graphs plotting relative light units in human islet cells 48 hours post infection with an AAV2 or AAV9 vector and following treatment with the indicate amount of meayamycin at 7 hours post infection. Luciferase expression was analyzed 48 hours p.i.
as §1

[7] = system: primary pancreatic islets; experiment: AAV8 CMV-GFP transduction of primary mouse pancreatic islets, live imaging; assay type: cell-based, C57B1/6 mice; details: 2 nM at 3 hours p.i., 48 and 72 hours p.i.
Method: FIG. 21 contains photographs of murine islet cells exposed to AAV8-GFP vectors along with meayamycin (2 nM). Images of GFP expressing islets were taken at two and three days post infection.
as §1

[8] = HeLa, 5 nM, drug 3 hours p.i., washed 1, 2 or 3 days after, luciferase at 3 days p.i.

CC(/C=C/[C@H]1OC(C)(C)C[C@@]2(CO2)[C@@H]1O)=C\C[C@@H]1O[C@H](C)[C@H](NC(=O)/C=C\[C@H](C)OC(=O)N2CCOCC2)C[C@@H]1C [meayamycin B]
transduction by GFP-expressing vectors (number and fluorescent intensity of GFP-positive cells) [1]: enhanced the transduction by both single-stranded and self-complementary AAV vectors | increase in AAV2 vector transduction (luciferase) [2]: ≤ 18 fold | increase in AAV9 vector transduction (luciferase) [2]: up to 57 fold | increase in relative luciferase activity ([3]; HeLa cells pre-treated at increasing dose 3 hours before AAV9 vector infection): up to 49 fold | increase in AAV2 vector transduction (luciferase) [3, 8]: up to 380 fold | increase in AAV9 vector transduction (luciferase) [3, 8]: ≤ 359 fold | increase in relative luciferase activity ([3]; HeLa, 20 nM, treated 9 hours post AAV9 vector infection): 464 fold | effects on AAV vector transduction, late drug addition ([3]; HeLa, AAV2 and AAV9, drug added either 24 or 48 hours p.i.): impaired | effect of washout on AAV vector transduction enhancement ([3]; HeLa, AAV2 and AAV9, washout for 48 hours after 3-24 hours of treatment): did not strongly compromise its effects on AAV vector transduction | effect on relative luciferase activity ([3]; HeLa, AAV9, 20 nM, treatment at 33 hours p.i.): relatively weak effects | vector transduction (luciferase) ([4]; AAV2 CMV-Luc, 2 nM at 3 hours post infection for 3 days): did not strongly improve vector transduction | increase in luciferase expression ([4]; AAV2 CMV-Luc, 10 nM at 3 hours post infection for 3 days): 72 fold | GFP expression ([4]; scAAV9 CMV-GFP, 10 nM, 5 days p.i.): notable increase in GFP expression | increase in vector transduction [5]: up to 1000 fold | increase in AAV2 transduction (luciferase expression) [6]: ≤ 24 fold | increase in AAV9 transduction (luciferase expression) [6]: up to 44 fold | GFP expressing cells in islets vs control islets [7]: increased numbers of GFP expressing cells
